From PubChem BioAssay (NCI) come the findings set out here.

Molecules are shown by their SMILES.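 All cell lines were grown in 96-well plates and treated with compound for 48 hours. TGI: total growth inhibition.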 Where a SMILES comes first, the peptide text is derived from it. The star is where a group is joined. Cbz = O=C(OCc1ccccc1)*

Holding throughout (experiment): NCI anticancer screen, dose series, 48 h
Assay [1] relates to A549 NSCLC.
The test system of assay [2] is ACHN renal.
In assay [3] the test system is HCT-116 colon.
Assay [4] relates to K-562 leukemia.
The test system of assay [5] is M14 melanoma.
Assay [6] relates to MDA-MB-231 breast.
Assay [7] deals with OVCAR-5 ovarian.
For assay [8], the system named is SF-295 CNS.
The subject of assay [9] is SK-MEL-28 melanoma.
Assay [10] concerns SN12C renal.
The subject of assay [11] is UACC-257 melanoma.

As for `O=C1CC(=O)NC(=NN2C(=O)/C(=C/c3ccc(Cl)c(Cl)c3)N=C2c2ccccc2)N1`, the TGI in assay [1] was over 100 µM; in assay [2] it was over 100 µM; in [3] it was 38 µM; in assay [4] it was 32.5 µM; in assay [5] it was 83.5 µM; in assay [6] it was 51.7 µM. Further, the TGI was over 100 µM in [7]; over 100 µM in [8]; 78 µM in assay [9]; 34.8 µM in assay [10]; over 100 µM in assay [11].

For the compound `O=C1OCC2OC(=O)c3cc(O)c(O)c(O)c3-c3c(O)c(O)c(O)c4c3C(=O)OC(C2OC(=O)c2cc(O)c(O)c(O)c2-c2c1cc(O)c(O)c2O)C1OC(=O)C2C4=C(O)C(=O)C23Oc2cc(O)c4c(c2[C@H]13)O[C@H](c1ccc(O)c(O)c1)[C@@H](O)C4` (stereo partly drawn), the TGI in assay [1] is over 100 µM; in [2], 56.6 µM; in [3] it was 40.3 µM; in assay [4], 72.3 µM; in assay [5], 29.6 µM; in assay [6], 43.5 µM. Besides, the TGI in assay [7] is 36.2 µM; in [8], 53.5 µM; in assay [9], over 100 µM; in assay [10] it was 42 µM; in assay [11], over 100 µM.

Consider `COc1ccc2nc(-c3ccccc3)c(=O)[nH]c2c1`, for which the TGI in [1], in assay [2], in [3], in assay [4], in assay [5] and in [6] was over 100 µM in each case. Also, the TGI in [7], in [8], in assay [9], in assay [10] and in assay [11] was over 100 µM each time.

Turning to `Cc1ccnc2c1C(=O)C1=C(OC(C)(C)CC1O)C2=O` (stereo not drawn), the TGI in [1] is 21.6 µM; in [2], 22.9 µM; in assay [3], 9.98 µM; in [4] it was over 100 µM; in [5], 9.97 µM; in [6], 15.4 µM. Moreover, the TGI in assay [7] was determined as 20.6 µM; in [8], 8.79 µM; in [9] it was 5.16 µM; in [10] it was 12.4 µM; in [11] it was 3.47 µM.

Regarding `CCOC(=O)CCC(NC(=O)C(Cc1ccccc1)NC(=O)OCc1ccccc1)C(=O)OCC` (stereo not drawn) (Cbz-Phe-Glu(OEt)-OEt; configuration not given here), the TGI in [1] was 36.9 µM; in [2], 31.2 µM; in assay [3], 32.1 µM; in assay [4], over 100 µM; in [5] it was 29.3 µM; in assay [6], 29.5 µM. Further, the TGI stood at 32.6 µM in assay [7]; 34.1 µM in assay [8]; 33.2 µM in assay [9]; 37.7 µM in assay [10]; 30.5 µM in assay [11].

For `O=C1/C(=C\c2cccc(Oc3ccccc3)c2)S(=O)(=O)C(c2ccccc2)N1c1cccc(Cl)c1` (stereo not drawn), the TGI in assay [1], in [2], in assay [3], in assay [4], in assay [5] and in assay [6] was over 100 µM in each case. Besides, the TGI in [7], in assay [8], in [9], in [10] and in assay [11] was over 100 µM each time.

For the compound `COc1ccc(CNc2nc(NC3CCCCC3)nc(NC3CCCCC3)n2)cc1`, the TGI was over 100 µM in [1]; over 100 µM in assay [2]; 16 µM in assay [3]; over 100 µM in assay [4]; over 100 µM in assay [5]; 20.1 µM in [6]. Further, the TGI in [7], in [8], in assay [9], in assay [10] and in assay [11] was over 100 µM each time.

On to `CC(=O)OCC1OC(n2c(C)c(N=Nc3ccc(Cl)cc3)c(C)c(C#N)c2=S)C(OC(C)=O)C(OC(C)=O)C1OC(C)=O` (stereo not drawn), for which the TGI in assay [1], in [2], in assay [3], in [4], in assay [5] and in assay [6] was over 100 µM in each case. The TGI was over 100 µM in assay [7]; 76.5 µM in assay [8]; over 100 µM in assay [9]; over 100 µM in [10]; over 100 µM in [11].

Consider `COc1cc2c(cc1O)NC(=O)[C@@H]1CCCN1C2=O`, for which the TGI in [1], in assay [2], in [3], in assay [4], in assay [5] and in assay [6] was over 100 µM throughout. Further, the TGI in assay [7], in [8], in [9], in assay [10] and in assay [11] was over 100 µM in each case.

Turning to `CN1CCc2c(sc3[nH]c(=S)[nH]c(=S)c23)C1`, the TGI in assay [1], in assay [2], in assay [3], in [4], in assay [5] and in assay [6] was over 100 µM each time. Besides, the TGI in assay [7], in assay [8], in assay [9], in assay [10] and in assay [11] was over 100 µM throughout.

As for `O=C1CCSCCC(=O)Nc2ccccc2N1`, the TGI in assay [1], in assay [2], in assay [3], in [4], in assay [5] and in [6] was over 100 µM each time. The TGI in assay [7], in assay [8], in assay [9], in assay [10] and in [11] was over 100 µM each time.

On to `O=c1[nH]nc(Cc2ccc(Cl)cc2)n1/N=C/c1cccs1`, for which the TGI in [1] was over 100 µM; in assay [2], over 100 µM; in assay [3], over 100 µM; in assay [4], over 100 µM; in [5], over 100 µM; in assay [6], 49.7 µM. In addition, the TGI in assay [7] is over 100 µM; in assay [8], 44 µM; in [9] it was over 100 µM; in [10], over 100 µM; in assay [11] it was over 100 µM.

Consider `C=C1CC[C@H]2C(=O)OC(c3ccoc3)C[C@]2(C)C/C=C\C=C/1C(=O)OC` (stereo partly drawn), for which the TGI in assay [1], in assay [2], in assay [3], in [4], in [5] and in [6] was over 25 µM throughout. Besides, the TGI in [7], in assay [8], in [9], in assay [10] and in assay [11] was over 25 µM in each case.

Turning to `Cc1ccc(S(=O)(=O)C2=C(C(C)C)N=NC2(C)C)cc1`, the TGI in assay [1], in assay [2], in assay [3], in assay [4], in assay [5] and in assay [6] was over 100 µM each time. Further, the TGI in assay [7], in assay [8], in assay [9], in assay [10] and in [11] was over 100 µM each time.

In the case of `C=C1CCCCCCCCC/C=C/1SCCCSC`, the TGI in [1], in assay [2], in assay [3], in assay [4], in [5] and in assay [6] was over 100 µM throughout. Besides, the TGI in [7], in assay [8], in assay [9], in assay [10] and in assay [11] was over 100 µM in each case.

As for `N#Cc1cc2c(cc1Cl)Sc1nnc(Nc3ccccc3)n1S2(=O)=O`, the TGI in [1] was determined as 16 µM; in assay [2] it was 3.32 µM; in assay [3] it was 4 µM; in assay [4] it was 11.1 µM; in assay [5], 4.78 µM; in [6], 4.7 µM. For the same compound, the TGI was 3.8 µM in [7]; 9.2 µM in assay [8]; 5.4 µM in assay [9]; 3.24 µM in [10]; 3.58 µM in assay [11].

For `S=C1NCCN1C(=S)Nc1ccccc1`, the TGI in [1], in assay [2], in assay [3], in assay [4], in assay [5] and in assay [6] was over 100 µM each time. The TGI in assay [7], in [8], in [9], in assay [10] and in [11] was over 100 µM each time.

Turning to `COc1cc2nc(-c3cccs3)nc(Cl)c2cc1OC`, the TGI in [1], in assay [2], in assay [3], in assay [4], in assay [5] and in [6] was over 100 µM in each case. The TGI in assay [7], in [8], in assay [9], in [10] and in assay [11] was over 100 µM throughout.
